From patent US20260083709A1, “COMBINATION PHARMACOLOGICAL INTERVENTIONS FOR MULTIPLE MECHANISMS OF OBSTRUCTIVE SLEEP APNEA” (APNIMED, INC.(DELAWARE), priority 2019, published 2026)

Columns and labels:
OSA [1] = settings: agents administered separately (N=9); cited from earlier work
OSA [2] = test: Acetazolamide effect on loop gain and OSA severity; design: species or system human; settings: in vivo
Excerpt: Residual events after anatomical interventions can arise as an effect of elevated loop gain. […] Acetazolamide is a respiratory stimulant used in healthy adults at high-altitude (where it augments and stabilizes respiration) and has additionally been administered safely long-term for glaucoma and heart failure.

In the case of `CNCC[C@@H](Oc1ccccc1C)c1ccccc1` [atomoxetine, Atomoxetine], the “effect on OSA severity, agents administered separately” value (OSA [1]) is listed as “minimal effect”.
In the case of `CC(=O)Nc1nnc(S(N)(=O)=O)s1` [acetazolamide], the “reduction of OSA severity (AHI)” value (OSA [2]) is reported as about 50% and the “reduction of loop gain” value (OSA [2]) is reported as about 50%.
For `CCN(CC)CC#CCOC(=O)C(O)(c1ccccc1)C1CCCCC1` (stereo not shown) [oxybutynin], the “effect on OSA severity, agents administered separately” value (OSA [1]) is given as “minimal effect”.
